Results on two compounds are retold here after patent US20030171420A1, “Compounds and compositions for use in ingibting endoparasitic fatty acid biosynthesis” (priority 2000, published 2003).

For one assay, the system named is Plasmodium falciparum. The experiment in a line: Plasmodium falciparum growth inhibition in human red blood cells (parasite lactate dehydrogenase assay). In kind it is cell-based. The note with it: for IC50: Plasmodium falciparum, Erythrocyte, at 48 hours, P. falciparum in human red blood cells, read-out: 50% inhibitory concentration (IC50) for parasite growth. The procedure: Plasmodium falciparum was maintained in human red blood cells and the inhibitory effects of racemic thiolactomycin, or compound C on its growth was measured, employing assay techniques as described by Makkler, M. T., Ries, J. M., Williams, J. A., Bancroft, J. E., Piper, R. C., Gibbins, B. L. and Hinrichs, D. J., Parasite lactate dehydrogenase as an assay for Plasmodium falciparum drug sensitivity. Am. J. Trop. Med. Hyg. 48, 739-41 (1993).

In assay [1] the test system is Eimeria tenella parasites. The experiment in a line: Eimeria tenella invasion of MDBK cells after preincubation of parasites with compound. Format: cell-based. The procedure:
(§1) Compound C was tested against Eimeria tenella parasites in two separate assay procedures, as described (i) in Inhibition of the development of Eimeria tenella in cultured bovine kidney cells by a soluble factor produced by peripheral blood lymphocytes from immune chickens, J. M. Bumstead, S. J. Topham, F. M. Tomley, Parasitology, 117.39-47 (1998) and (ii) Eimeria tenella: Parasite-specific incorporation of 3H Uracil as a quantitative measure of intracellular development, Schmatz, D. M., Crane, M. S., is Murray, P. K., Journal of Protozology (1986) 33:109-114.
Preincubation of compound C with parasites caused a significant reduction in invasion of Madin-Darby Bovine Kidney (MDBK) cells at concentrations of 10 μM and above.

In assay [2] the test system is Eimeria tenella parasites. Kind of assay: Eimeria tenella uracil uptake in infected MDBK cells. In kind it is cell-based. As to conditions: uracil uptake as indicator of parasite viability. The procedure:
as §1
In the second assay using infected MDBK cells, compound C caused a significant decrease in the uptake of uracil by the parasites (a recognised indicator of parasite viability) at concentrations greater than 5 μM.

The test system of assay [3] is fatty acid synthesis in Trypanosoma brucei. The note with it: Morita et al., Science 288: 140-143 (2000); read-out: IC50 for inhibition of fatty acid synthesis in Trypanosoma brucei; cited from earlier work.

With `CC(C)=CCC/C(C)=C/CC1(C)SC(=O)C(C)=C1O` (stereo not drawn) [Compound C], in the assay with Plasmodium falciparum, the IC50 came to 0.5 µM. In addition, the “times more active than racemic thiolactomycin in inhibiting growth of Plasmodium falciparum” value in the assay with Plasmodium falciparum (ratio of IC50 values at 48 hours) was “approximately 80 times”. Moreover, the “concentrations causing a significant reduction in invasion of Madin-Darby Bovine Kidney (MDBK) cells” value in assay [1] is at least 10 µM. Moreover, the “concentrations causing a significant decrease in the uptake of uracil by the parasites” value in assay [2] is given as “greater than 5 μM”.

Consider `C=C/C(C)=C/C1(C)SC(=O)C(C)=C1O` (racemic) [Racemic thiolactomycin, Thiolactomycin, reference compound], for which the IC50 in the assay on Plasmodium falciparum was 40 µM; in assay [3] it was about 150 µM.
